Data from patent publication US20250179059A1 (The Regents of the University of California, priority 2021, published 2025).
Read-outs that look alike come from different tables or passages of the source.

Key:
[1] = target: T1, human BRD4 bromodomain II (Homo sapiens, UniProt O60885); assay: Bromodomain binding assay (AlphaScreen), BRD4 BDII
T1 construct: human BRD4 bromodomain II [based on Genbank NM_058243, residues 349-460]; host or cells: E. coli
Procedure, shortened: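 Tagged BRD4 BDI or BDII constructs, expressed in E. coli, competed against a K5/K8/K12/K16-acetylated biotin-H4 peptide. Proximity signal between bead pairs after room-temperature incubations gave concentration-response curves, from which IC50 was derived.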

[2] = system: human SKM-1 acute myeloid leukemia cells; assay: SKM-1 antiproliferation cell-based assay (ATPlite); conditions: Homo sapiens
Procedure, shortened: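 Log-phase cells in RPMI 1640/15% FBS were seeded at 34722 cells/mL and exposed for 4 days to nine-concentration DMSO serial dilutions in triplicate. Viability was read as ATP luminescence (ATPlite 1step), and IC50 values came from variable-slope non-linear regression.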

[3] = AlphaScreen assay, Table C2, read-out: BRD4 BDII IC50
[4] = SKM-1, 96 h, SKM-1 antiproliferation assay, 4 days, Table C2
[5] = BRD4 BDII AlphaScreen assay, read-out: BRD4 BD2 IC50
[6] = SKM-1, SKM-1 antiproliferation assay

Row | SMILES | IC50 [1, 3] [nM] | GI50 [2, 4] [nM] | IC50 [1, 5] [nM] | GI50 [2, 6] [nM]
1 | Cc1cc(-c2ccc(-n3ccn(C)c3=O)c(Cl)c2)c(O)c(-c2cc(F)cc(N3CCN(C(C)(C)C)CC3)c2)n1 [Example 1014, 1-(4-(2-(3-(4-(tert-butyl)piperazin-1-yl)-5-fluorophenyl)-3-hydroxy-6-methylpyridin-4-yl)-2-chlorophenyl)-3-methyl-1H-imidazol-2(3H)-one] |  |  | 0.01 to 1 | 0.3 to 30
2 | Cc1cc(-c2ccc(-n3ccn(C)c3=O)c(Cl)c2)c(O)c(-c2cc(N3CCN(C(C)(C)C)CC3)n3ccnc3c2)n1 [Example 1002, 1-(4-(2-(5-(4-(tert-butyl)piperazin-1-yl)imidazo[1,2-a]pyridin-7-yl)-3-hydroxy-6-methylpyridin-4-yl)-2-chlorophenyl)-3-methyl-1H-imidazol-2(3H)-one] |  |  | 1 to 10 | 0.3 to 30
3 | Cn1ccn(-c2ccc(-c3cc(F)cc(-c4ccc(F)c(N5CC[C@@](C)(O)C5)c4)c3O)cc2Cl)c1=O [Example 775, (R)-1-(3-chloro-4″,5′-difluoro-2′-hydroxy-3″-(3-hydroxy-3-methylpyrrolidin-1-yl)-[1,1′:3′,1″-terphenyl]-4-yl)-3-methyl-1H-imidazol-2(3H)-one] | 1 to 10 | 30 to 300 |  | 
4 | C[C@@H]1CN(c2cc(-c3cc(F)cc(-c4ccc(-n5ccn(C)c5=O)c(Cl)c4)c3O)cc3[nH]ccc23)CCN1 [Example 551, (R)-1-(3-chloro-5′-fluoro-2′-hydroxy-3′-(4-(3-methylpiperazin-1-yl)-1H-indol-6-yl)-[1,1′-biphenyl]-4-yl)-3-methyl-1H-imidazol-2(3H)-one] | 0.01 to 1 | 0.3 to 30 |  | 
5 | Cn1ccn(-c2ccc(-c3cc(F)cc(-c4cc(N5CCN6CCCCC6C5)c5cnn(C)c5c4)c3O)cc2Cl)c1=O (stereo not drawn) [Example 609, 1-(3-chloro-5′-fluoro-3′-(4-(hexahydro-1H-pyrido[1,2-a]pyrazin-2(6H)-yl)-1-methyl-1H-indazol-6-yl)-2′-hydroxy-[1,1′-biphenyl]-4-yl)-3-methyl-1H-imidazol-2(3H)-one] | 0.01 to 1 | 0.3 to 30 |  | 
6 | Cc1cc(-c2ccnc(N3CC[C@H](N)C3)c2)c(O)c(-c2ccc(-n3ccn(C)c3=O)c(Cl)c2)c1 [Example 498, (S)-1-(3′-(2-(3-aminopyrrolidin-1-yl)pyridin-4-yl)-3-chloro-2′-hydroxy-5′-methyl-[1,1′-biphenyl]-4-yl)-3-methyl-1H-imidazol-2(3H)-one] | 0.01 to 1 | 0.3 to 30 |  | 
7 | Cc1cc(-c2ccnc(N3CCN[C@H](C)C3)c2)c(O)c(-c2ccc(-n3ccn(C)c3=O)c(Cl)c2)c1 [Example 500, (R)-1-(3-chloro-2′-hydroxy-5′-methyl-3′-(2-(3-methylpiperazin-1-yl)pyridin-4-yl)-[1,1′-biphenyl]-4-yl)-3-methyl-1H-imidazol-2(3H)-one] | 1 to 10 | 0.3 to 30 |  | 
8 | COCCCn1cc(-c2cc(F)cc(-c3ccc(-n4ccn(C)c4=O)c(Cl)c3)c2O)cc(N2CCN[C@H](C)C2)c1=O [Example 660, (R)-5-(3′-chloro-5-fluoro-2-hydroxy-4′-(3-methyl-2-oxo-2,3-dihydro-1H-imidazol-1-yl)-[1,1′-biphenyl]-3-yl)-1-(3-methoxypropyl)-3-(3-methylpiperazin-1-yl)pyridin-2(1H)-one] | 0.01 to 1 | 30 to 300 |  | 
9 | Cn1ccn(-c2ccc(-c3cc(F)cc(-c4ccnc(N5CC(O)C6(CC6)C5)c4)c3O)cc2Cl)c1=O (stereo not drawn) [Example 743, 1-(3-chloro-5′-fluoro-2′-hydroxy-3′-(2-(7-hydroxy-5-azaspiro[2.4]heptan-5-yl)pyridin-4-yl)-[1,1′-biphenyl]-4-yl)-3-methyl-1H-imidazol-2(3H)-one] | 0.01 to 1 | 0.3 to 30 |  | 
10 | COc1ncc(-c2cc(F)cc(-c3ccc(-n4ccn(C)c4=O)c(Cl)c3)c2O)cc1N1CC(F)(F)[C@@](C)(O)C1 [Example 899] |  |  | 1 to 10 | 300 to 3000

Results, then the compound that gave them:

Row | IC50 [1, 3] [nM] | GI50 [2, 4] [nM] | IC50 [1, 5] [nM] | GI50 [2, 6] [nM] | SMILES
11 | 1 to 10 | 30 to 300 |  |  | Cn1ccn(-c2ccc(-c3cc(F)cc(-c4ccc(C(F)(F)F)c(N5CCN(C(C)(C)C)CC5)c4)c3O)cc2Cl)c1=O [Example 810, 1-(3″-(4-(tert-butyl)piperazin-1-yl)-3-chloro-5′-fluoro-2′-hydroxy-4″-(trifluoromethyl)-[1,1′:3′,1″-terphenyl]-4-yl)-3-methyl-1H-imidazol-2(3H)-one]
12 | 0.01 to 1 | 30 to 300 |  |  | C[C@@H]1CN(c2cc(-c3cc(F)cc(-c4ccc(-n5ccn(C)c5=O)c(Cl)c4)c3O)ccn2)CCO1 [Example 673, (R)-1-(3-chloro-5′-fluoro-2′-hydroxy-3′-(2-(2-methylmorpholino)pyridin-4-yl)-[1,1′-biphenyl]-4-yl)-3-methyl-1H-imidazol-2(3H)-one]
13 | 10 to 100 | ≥ 3000 |  |  | CN1CCN(c2ccc(-c3cc(F)cc(-c4ncc(N5CCOCC5)cc4N4CCNCC4)c3O)cc2Cl)C1=O [Example 416, 1-(3-chloro-5′-fluoro-2′-hydroxy-3′-(5-morpholino-3-(piperazin-1-yl)pyridin-2-yl)-[1,1′-biphenyl]-4-yl)-3-methylimidazolidin-2-on]
14 | 0.01 to 1 | 0.3 to 30 |  |  | C[C@@H]1CN(c2cc(-c3cc(F)cc(-c4ccc(-n5ccn(C)c5=O)c(Cl)c4)c3O)cc(OCCCO)n2)CCN1 [Example 638, (R)-1-(3-chloro-5′-fluoro-2′-hydroxy-3′-(2-(3-hydroxypropoxy)-6-(3-methylpiperazin-1-yl)pyridin-4-yl)-[1,1′-biphenyl]-4-yl)-3-methyl-1H-imidazol-2(3H)-one]
15 | 1 to 10 | 0.3 to 30 |  |  | Cc1cc(-c2ccc(-n3ccn(C)c3=O)c(Cl)c2)c(O)c(-c2cc(N3CCN[C@H](C)C3)c3cn[nH]c3c2)c1 [Example 585, (R)-1-(3-chloro-2′-hydroxy-5′-methyl-3′-(4-(3-methylpiperazin-1-yl)-1H-indazol-6-yl)-[1,1′-biphenyl]-4-yl)-3-methyl-1H-imidazol-2(3H)-one]
16 | 1 to 10 | 300 to 3000 |  |  | CC(=O)Nc1ccc(-c2cccc(-c3ccnc(N4CC(C)NC(C)C4)c3)c2O)cc1F (stereo not drawn) [Example 279, N-(3′-(2-(3,5-dimethylpiperazin-1-yl)pyridin-4-yl)-3-fluoro-2′-hydroxy-[1,1′-biphenyl]-4-yl)acetamide]
17 | > 100 | ≥ 3000 |  |  | CC(C)N1CCN(c2ccc(-c3cc(F)cc(-c4ccnc(N5CCNCC5)c4)c3O)cc2Cl)C1=O [Example 364, 1-(3-chloro-5′-fluoro-2′-hydroxy-3′-(2-(piperazin-1-yl)pyridin-4-yl)-[1,1′-biphenyl]-4-yl)-3-isopropylimidazolidin-2-one]
18 | 1 to 10 | 0.3 to 30 |  |  | Cc1cc(-c2cncc(N3CC[C@H](N)C3)c2)c(O)c(-c2ccc(-n3ccn(C)c3=O)c(Cl)c2)c1 [Example 509, (S)-1-(3′-(5-(3-aminopyrrolidin-1-yl)pyridin-3-yl)-3-chloro-2′-hydroxy-5′-methyl-[1,1′-biphenyl]-4-yl)-3-methyl-1H-imidazol-2(3H)-one]
19 | 0.01 to 1 | 0.3 to 30 |  |  | Cn1ccn(-c2ccc(-c3cc(F)cc(-c4ccnc(N5CCN6CCOCC6C5)c4)c3O)cc2Cl)c1=O (stereo not drawn) [Example 647, 1-(3-chloro-5′-fluoro-3′-(2-(hexahydropyrazino[2,1-c][1,4]oxazin-8(1H)-yl)pyridin-4-yl)-2′-hydroxy-[1,1′-biphenyl]-4-yl)-3-methyl-1H-imidazol-2(3H)-one]
20 |  |  | > 100 | 300 to 3000 | CC(C)c1cc(-c2cc(F)cc(-c3cccc(N4CCN(C(C)(C)C)CC4)c3)c2O)cc(Cl)c1-n1ccn(C)c1=O [Example 932, 1-(3″-(4-(tert-butyl)piperazin-1-yl)-3-chloro-5′-fluoro-2′-hydroxy-5-isopropyl-[1,1′:3′,1″-terphenyl]-4-yl)-3-methyl-1H-imidazol-2(3H)-one]
21 | 1 to 10 | 30 to 300 |  |  | CCc1ncc(-c2cc(F)cc(-c3ccc(N4CCN(C)C4=O)c(Cl)c3)c2O)cc1N1CCNCC1 [Example 382, 1-(3-chloro-3′-(6-ethyl-5-(piperazin-1-yl)pyridin-3-yl)-5′-fluoro-2′-hydroxy-[1,1′-biphenyl]-4-yl)-3-methylimidazolidin-2-one]
22 | 0.01 to 1 | 0.3 to 30 |  |  | CCc1cc(-c2cc(F)cc(-c3ccc(-n4ccn(C)c4=O)c(Cl)c3)c2O)cc(N2CCN(C(C)C)CC2)n1 [Example 704, 1-(3-chloro-3′-(2-ethyl-6-(4-isopropylpiperazin-1-yl)pyridin-4-yl)-5′-fluoro-2′-hydroxy-[1,1′-biphenyl]-4-yl)-3-methyl-1H-imidazol-2(3H)-one]
23 | 1 to 10 | 0.3 to 30 |  |  | Cn1ccn(-c2ccc(-c3cc(F)cc(-c4ccc(Cl)c(N5CCN(C(C)(C)C)CC5)c4)c3O)cc2Cl)c1=O [Example 809, 1-(3″-(4-(tert-butyl)piperazin-1-yl)-3,4″-dichloro-5′-fluoro-2′-hydroxy-[1,1′:3′,1″-terphenyl]-4-yl)-3-methyl-1H-imidazol-2(3H)-one]
24 | 1 to 10 | 0.3 to 30 |  |  | Cc1ncc(-c2cc(F)cc(-c3ccc(-n4ccn(C)c4=O)c(Cl)c3)c2O)cc1N1CCCN(C(C)(C)C)CC1 [Example 844, 1-(3′-(5-(4-(tert-butyl)-1,4-diazepan-1-yl)-6-methylpyridin-3-yl)-3-chloro-5′-fluoro-2′-hydroxy-[1,1′-biphenyl]-4-yl)-3-methyl-1H-imidazol-2(3H)-one]
